Results reported in patent US10501482B2, “Compounds for treating spinal muscular atrophy” (Hoffmann-La Roche Inc., priority 2013, dated 2019).
Counter-ions that a name gives are not always drawn.

Tests used:
[1] = tested on: full length SMN2 minigene mRNA (FL SMN2mini) in HEK293H cells stably transfected with the SMN2-A minigene construct; test: SMN2 minigene mRNA splicing RT-qPCR assay in cultured cells; assay type: cell-based; conditions: Homo sapiens, HEK293-H, 24 hours, 7-point concentration curve, concentration giving 1.5-fold FL SMN2mini mRNA vs vehicle, read-out: EC1.5x minigene (EC1.5x concentration for production of full length SMN2 minigene mRNA)
Experimental: The reverse transcription-quantitative PCR-based (RT-qPCR) assay is used to quantify the level of the full length SMN2 minigene (referred to herein by the term “FL SMN2mini”) mRNA containing SMN2 exon 7 in a HEK293H cell line stably transfected with said minigene and treated with a test compound.
The SMN2-A minigene construct was prepared as described in International Patent Application WO2009/151546A1 page 145 paragraph [00400] to page 147 paragraph [00412](incl. FIG. 1 and FIG. 3 therein).
HEK293H cells stably transfected with the SMN2-A minigene construct (10,000 cells/well) are seeded in 200 μL of cell culture medium (DMEM plus 10% FBS, with 200 μg/mL hygromycin) in 96-well flat-bottom plates and the plate is immediately swirled to ensure proper dispersal of cells and the formation of an even monolayer of cells. Cells are allowed to attach for 6 hours. […] A solution of test compound (1 μL, 200× in DMSO) is added to each cell-containing well and the plate is incubated for 24 hours in a cell culture incubator (37° C., 5% CO2, 100% relative humidity). 2 replicates are prepared for each test compound concentration. The cells are then lysed in the Cells-To-Ct lysis buffer and the lysate is stored at −80° C.
Full length SMN2-A minigene and GAPDH mRNA are quantified using the primers and probes referenced in Table 1. Primer SMN Forward A (SEQ ID NO.1) hybridizes to a nucleotide sequence in exon 7 (nucleotide 22 to nucleotide 40), primer SMN Reverse A (SEQ ID NO.2) hybridizes to a nucleotide sequence in the coding sequence of Firefly luciferase, SMN Probe A (SEQ ID NO.3) hybridizes to a nucleotide sequence in exon 7 (nucleotide 50 to nucleotide 54) and exon 8 (nucleotide 1 to nucleotide 21). The combination of these three oligonucleotides detects only SMN1 or SMN2 minigenes (RT-qPCR) and will not detect endogenous SMN1 or SMN2 genes.
The SMN forward and reverse primers are used at final concentrations of 0.4 μM. The SMN probe is used at a final concentration of 0.15 μM. The GAPDH primers are used at final concentrations of 0.2 μM and the probe at 0.15 μM.
The SMN2-minigene GAPDH mix (15 μL total volume) is prepared by combining 7.5 μL of 2×RT-PCR buffer, 0.4 μL of 25×RT-PCR enzyme mix, 0.75 μL of 20×GAPDH primer-probe mix, 4.0075 μL of water, 2 μL of 10-fold diluted cell lysate, 0.06 μL of 100 μM SMN forward primer, 0.06 μL of 100 μM SMN reverse primer, and 0.225 μL of 100 μM SMN probe.
PCR is carried out at the following temperatures for the indicated time: Step 1: 48° C. (15 min); Step 2: 95° C. (10 min); Step 3: 95° C. (15 sec); Step 4: 60° C. (1 min); then repeat Steps 3 and 4 for a total of 40 cycles.
Each reaction mixture contains both SMN2-A minigene and GAPDH primers/probe sets (multiplex design), allowing simultaneous measurement of the levels of two transcripts.
The increase in the abundance of the FL SMN2mini mRNA relative to that in cells treated with vehicle control is determined from real-time PCR data using a modified ΔΔCt method (as described in Livak and Schmittgen, Methods, 2001, 25:402-8). The amplification efficiency E is calculated from the slope of the amplification curve for FL SMN2mini and GAPDH individually. The abundance of FL SMN2mini and GAPDH mRNA are then calculated as (1+E)^−Ct, where Ct is the threshold value for each amplicon. The abundance of FL SMN2mini mRNA is normalized to GAPDH mRNA abundance. The normalized FL SMN2mini mRNA abundance from test compound-treated samples is then divided by normalized FL SMN2mini mRNA abundance from vehicle-treated cells to determine the level of FL SMN2mini mRNA relative to vehicle control.
Table 2 provides EC1.5x concentrations for production of full length SMN2 minigene mRNA that was obtained from the 7-point concentration data generated according to the above procedure for particular compounds of the present invention.

SMN protein = SMN protein assay (HTRF) in cultured SMA patient fibroblast cells; assay type: cell-based; conditions: SMA Type 1 human fibroblasts GM03813, 48 hours; for EC1.5x SMN protein (EC1.5x concentration for SMN protein expression): 7-point concentration curve, concentration giving 1.5 times SMN protein vs vehicle; for max. fold increase (maximum fold increase of SMN protein): 7-point concentration data, fold vs vehicle control
Experimental: The SMN HTRF (homogeneous time resolved fluorescence) assay is used to quantify the level of SMN protein in SMA patient fibroblast cells treated with test compounds.
Cells are thawed and cultured in DMEM-10% FBS for 72 hours. Cells are trypsinized, counted and re-suspended to a concentration of 25,000 cells/mL in DMEM-10% FBS. The cell suspensions are plated at 5,000 cells per well in a 96 well microtiter plate and incubated for 3 to 5 hours. […] 1 μL of test compound solution is transferred to cell-containing wells and cells are incubated for 48 hours in a cell culture incubator (37° C., 5% CO2, 100% relative humidity). Triplicate samples are set up for each test compound concentration. After 48 hours, the supernatant is removed from the wells and 25 μL of the RIPA lysis buffer, containing protease inhibitors, is added to the wells and incubated with shaking at room temperature for 1 hour. 25 μL of the diluent is added and then 35 μL of the resulting lysate is transferred to a 384-well plate, where each well contains 5 μL of the antibody solution (1:100 dilution of anti-SMN d2 and anti-SMN kryptate in SMN reconstitution buffer). The plate is centrifuged for 1 minute to bring the solution to the bottom of the wells, then incubated overnight at room temperature. Fluorescence for each well of the plate at 665 nm and 620 nm is measured on an EnVision multilabel plate reader (Perkin-Elmer).
The normalized fluorescence signal is calculated for each sample, Blank and vehicle control well by dividing the signal at 665 nm by the signal at 620 nm. Normalizing the signal accounts for possible fluorescence quenching due to the matrix effect of the lysate. The ΔF value (a measurement of SMN protein abundance as a percent value) for each sample well is calculated by subtracting the normalized average fluorescence for the Blank control wells from the normalized fluorescence for each sample well, then dividing this difference by the normalized average fluorescence for the Blank control wells and multiplying the resulting value by 100. The ΔF value for each sample well represents the SMN protein abundance from test compound-treated samples. The ΔF value for each sample well is divided by the ΔF value for the vehicle control wells to calculate the fold increase in SMN protein abundance relative to the vehicle control. Table 3 provides EC1.5x concentrations for SMN protein expression that was obtained from the 7-point concentration data generated according to the above procedure for particular compounds of the present invention.
Table 4 provides the maximum fold increase of SMN protein that was obtained from the 7-point concentration data generated according to the above procedure for particular compounds of the present invention

| Structure (SMILES) | EC (1.5-fold) [1] [µM] | EC1.5x SMN protein (EC1.5x concentration for SMN protein expression) (SMN protein) [µM] | max. fold increase (maximum fold increase of SMN protein) (SMN protein) |
| --- | --- | --- | --- |
| Cc1cn2cc(NC(=O)c3ccc(N4CCNC(C)C4)cc3F)cc(C)c2n1 (racemic) [Example 37, rac-N-(2,8-dimethyl-imidazo[1,2-a]-pyridin-6-yl)-2-fluoro-4-(3-methylpiperazin-1-yl)benamide dihydrochloride] | 0.028 | 0.1196 | 1.7758 |
| Cc1nc2ccc(NC(=O)c3ccc(N4CCNC(C)C4)cc3F)cc2o1 (racemic) [Example 38, rac-2-fluoro-N-(2-methylbenzo[d]-oxazol-6-yl)-4-(3-methylpiperazin-1-yl)benzamide dihydrochloride] | 0.472 | 0.6124 | 1.8706 |
| Cc1cn2cc(NC(=O)c3ccc(N4CCNC(C)C4)cc3F)cc(F)c2n1 (racemic) [Example 39, rac-2-fluoro-N-(8-fluoro-2-methyl-imidazo[1,2-a]-pyridin-6-yl)-4-(3-methylpiperazin-1-yl)benzamide dihydrochloride] | 0.0168 | 0.0147 | 1.8791 |
| Cc1cn2cc(NC(=O)c3ccc(N4CCNC(C)C4)nc3)cc(F)c2n1 (racemic) [Example 42, rac-N-(8-fluoro-2-methylimidazo-[1,2-a]pyridin-6-yl)-6-(3-methyl-piperazin-1-yl)-nicotinamide dihydrochloride] | 0.0544 | 0.1488 | 1.6988 |
| Cc1cn2cc(NC(=O)c3ccc(N4CCNC(C)C4)cn3)cc(F)c2n1 (racemic) [Example 43, rac-N-(8-fluoro-2-methylimidazo[1,2-a]pyridin-6-yl)-5-(3-methylpiperazin-1-yl)picolinamide dihydrochloride] | 0.057 | 0.104 | 1.7873 |
| Cc1cn2cc(NC(=O)c3ccc(N4CCNC(C)C4)c(F)c3F)cc(F)c2n1 (racemic) [Example 45, rac-2,3-difluoro-N-(8-fluoro-2-methylimidazo[1,2-a]pyridin-6-yl)-4-(3-methylpiperazin-1-yl)benzamide hydrochloride] | 0.0615 | 0.5147 | 1.6445 |
| Cc1cn2cc(NC(=O)c3cc(F)c(N4CCNC(C)C4)cc3F)cc(F)c2n1 (racemic) [Example 46, rac-2,5-difluoro-N-(8-fluoro-2-methyl-imidazo[1,2-a]-pyridin-6-yl)-4-(3-methylpiperazin-1-yl)benzamide hydrochloride] | 0.0887 | 0.3584 | 1.5572 |
| Cc1cn2cc(NC(=O)c3cnc(N4CCNC(C)C4)c(F)c3)cc(F)c2n1 (racemic) [Example 47, rac-5-fluoro-N-(8-fluoro-2-methyl-imidazo[1,2-a]-pyridin-6-yl)-6-(3-methylpiperazin-1-yl)nicotinamide hydrochloride] | 0.396 | 0.611 | 1.7065 |
| Cc1cn2cc(NC(=O)c3ncc(N4CCNC(C)C4)cc3F)cc(F)c2n1 (racemic) [Example 48, rac-3-fluoro-N-(8-fluoro-2-methyl-imidazo[1,2-a]-pyridin-6-yl)-5-(3-methylpiperazin-1-yl)picolinamide hydrochloride] | 0.0164 | 0.0621 | 1.738 |
| Cc1cn2cc(NC(=O)c3c(F)cc(N4CCNC(C)C4)cc3F)cc(F)c2n1.Cl (racemic) [Example 49, rac-2,6-difluoro-N-(8-fluoro-2-methyl-imidazo[1,2-a]-pyridin-6-yl)-4-(3-methylpiperazin-1-yl)benzamide hydrochloride] | 0.0107 | 0.1733 | 1.658 |
| Cc1cn2cc(NC(=O)c3ccc(N4CCNC(C)C4)cc3F)c(C)cc2n1 (racemic) [Example 52, rac-N-(2,7-dimethyl-imidazo[1,2-a]-pyridin-6-yl)-2-fluoro-4-(3-methyl-piperazin-1-yl)-benzamide dihydrochloride] | 0.04 | 0.1518 | 1.8152 |
| Cc1cn2cc(NC(=O)c3cnc(N4CCNC(C)C4)c(F)c3)cc(Cl)c2n1 (racemic) [Example 53, rac-N-(8-chloro-2-methylimidazo-[1,2-a]pyridin-6-yl)-5-fluoro-6-(3-methylpiperazin-1-yl)nicotinamide hydrochloride] | 0.21 | 0.7455 | 1.6563 |
